According to the supplement of paper PMC12137928:
Where a name gives a salt, the structure may show the parent alone.

Test system: HCT116
Conditions: 72 h
Summary of the method: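 After seeding at 250 cells per well in 1536-well plates, HCT116 cells were given 5 h to attach. CellTiter-Glo luminescence, scaled to 0% for vehicle and -100% for positive control, was pattern-corrected. Fitting with a four-parameter Hill model produced IC50 and maximal efficacy.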

| SMILES | IC50 cell viability (ICRF193 0 nM) [µM] | IC50 cell viability (ICRF193 200 nM) [µM] |
| --- | --- | --- |
| CC(C)(C)CC(C)(C)c1cc(Cc2cc(C(C)(C)CC(C)(C)C)cc(-n3nc4ccccc4n3)c2O)c(O)c(-n2nc3ccccc3n2)c1 | > 45.8 | > 45.8 |
| CNC(C)C(O)c1ccc(O)cc1 (stereo not given) | > 45.8 | > 45.8 |
| Cl/C=C\C[N+]12CN3CN(CN(C3)C1)C2 | > 45.8 | > 45.8 |
| CCCCC(C)(O)C/C=C/[C@H]1[C@H](O)CC(=O)[C@@H]1CCCCCCC(=O)OC (mixture of isomers) [Misoprostol] | > 45.8 | > 45.8 |
| CCCCCCCCCCCCCC(=O)OCC(COP(=O)([O-])OCC[N+](C)(C)C)OC(=O)CCCCCCCCCCCCC (racemic) [1,2-Ditetradecanoyl-rac-glycerol-3-phosphocholine] | > 45.8 | > 45.8 |
| CCCCCCCCCCCCCCCCCC(=O)OCC(O)CO (racemic) [1-Stearoyl-rac-glycerol] | > 45.8 | > 45.8 |
| C[N+](C)(C)CC(O)CC(=O)[O-] (racemic) [DL-Carnitine HCl] | > 45.8 | > 45.8 |
| NC(CS)C(=O)O (racemic) [DL-Cysteine] | > 45.8 | > 45.8 |
| CC[C@H](C)[C@H](N)C(=O)O (racemic) [DL-Isoleucine] | > 45.8 | > 45.8 |
| Cc1c(C)c2c(c(C)c1OC(=O)c1cccnc1)CC[C@@](C)(CCC[C@H](C)CCC[C@H](C)CCCC(C)C)O2 (racemic) [DL-alpha Tocopheryl nicotinate] | > 45.8 | > 45.8 |
| CC(=O)Oc1c(C)c(C)c2c(c1C)CCC(C)(CCCC(C)CCCC(C)CCCC(C)C)O2 (racemic) [dl-alpha-Tocopheryl acetate] | > 45.8 | > 45.8 |
| C[N+]1([O-])[C@@H]2CC(OC(=O)[C@H](CO)c3ccccc3)C[C@H]1[C@@H]1O[C@@H]12 (single isomer, unassigned; (-)) [(-)-Scopolamine N-oxide] | > 45.8 | > 45.8 |
| CC(=C(CCO)SSCC1CCCO1)N(C=O)Cc1cnc(C)nc1N (stereo in doubt) [Fursultiamine Hydrochloride] | > 45.8 | > 45.8 |
| Cc1nnc(C(C)C)n1C1C[C@H]2CC[C@@H](C1)N2CC[C@H](NC(=O)C1CCC(F)(F)CC1)c1ccccc1 (stereo in doubt) [Maraviroc] | > 45.8 | > 45.8 |
| CC(C)(O)C(Cl)(Cl)Cl [1,1,1-Trichloro-2-methyl-2-propanol] | > 45.8 | > 45.8 |
| O=Cc1ccccc1C=O [1,2-Benzenedicarboxaldehyde] | > 45.8 | > 45.8 |
| Oc1cc(O)cc(O)c1 [1,3,5-Trihydroxybenzene dihydrate] | > 45.8 | > 45.8 |
| COc1cc(OC)cc(OC)c1 [1,3,5-Trimethoxybenzene] | > 45.8 | > 45.8 |
| NC(=Nc1ccccc1)Nc1ccccc1 [1,3-Diphenylguanidine] | > 45.8 | > 45.8 |
| O=S(=O)(O)CCCS(=O)(=O)O [1,3-Propanedisulfonic acid disodium salt] | > 45.8 | > 45.8 |
| CC12CCC(CC1)C(C)(C)O2 [1,8-Cineol] | > 45.8 | > 45.8 |
| FC(F)(F)C(F)(F)C(F)(F)C(F)(F)C(F)(F)C(F)(F)C(F)(F)C(F)(F)Br [1-Bromoheptadecafluorooctane] | > 45.8 | > 45.8 |
| CCN1CCCC1=O [1-Ethyl-2-pyrrolidinone] | > 45.8 | > 45.8 |

| SMILES | IC50 cell viability (ICRF193 0 nM) [µM] | IC50 cell viability (ICRF193 200 nM) [µM] |
| --- | --- | --- |
| CCCCCCCCCCCCCCCCO [1-Hexadecanol] | > 45.8 | > 45.8 |
| CCCCCCCCCCCCCCCCCCCCCCCCCCCCO [1-Octacosanol] | > 45.8 | > 45.8 |
| CCCCCCCCCCCCCCCCCCO [1-Octadecanol] | > 45.8 | > 45.8 |
| CC(O)COc1ccccc1 (stereo not given) [1-Phenoxy-2-propanol] | > 45.8 | > 45.8 |
| CCC(O)c1ccccc1 (stereo not given) [1-Phenyl-1-propanol] | > 45.8 | > 45.8 |
| c1ccc2sc(SSc3nc4ccccc4s3)nc2c1 [2,2'-Dithiobisbenzothiazole] | > 45.8 | > 45.8 |
| CCCCCCCC(=O)OCC(O)CO (stereo not given) [2,3-Dihydroxypropyl octanoate] | > 45.8 | > 45.8 |
| O=[N+]([O-])c1cc(I)c(O)c(I)c1 [2,6-DIIODO-4-NITROPHENOL] | > 45.8 | > 45.8 |
| CCCCCCCCCCCCOCCO [2-(Dodecyloxy)ethanol] | > 45.8 | > 45.8 |
| O=[N+]([O-])C(Br)(CO)CO [2-Bromo-2-nitro-1,3-propanediol] | > 45.8 | > 45.8 |
| NC(=O)c1ccc([N+](=O)[O-])cc1Cl [2-Chloro-4-nitrobenzamide] | > 45.8 | > 45.8 |
| CCOc1ccccc1C(N)=O [2-Ethoxybenzamide] | > 45.8 | > 45.8 |
| CCCC(O)C(CC)CO (stereo not given) [2-Ethyl-1,3-hexanediol] | > 45.8 | > 45.8 |
| CCCCC(CC)COC(=O)c1ccc(N(C)C)cc1 (stereo not given) [2-Ethylhexyl 4-(dimethylamino)benzoate] | > 45.8 | > 45.8 |
| CCCCC(CC)COC(=O)c1ccccc1O (stereo not given) [2-Ethylhexyl salicylate] | > 45.8 | > 45.8 |
| CCCCCCCCCCCCCCCCCC(=O)OCCO [2-Hydroxyethyl octadecanoate] | > 45.8 | > 45.8 |
| O=C(O)CNC(=O)c1ccccc1I [2-Iodohippuric acid] | > 45.8 | > 45.8 |
| Sc1nc2ccccc2s1 [2-Mercaptobenzothiazole] | > 45.8 | > 45.8 |
| CCCCCCCCCCC(CO)CCCCCCCC (stereo not given) [2-Octyl-1-dodecanol] | > 45.8 | > 45.8 |
| OCCOc1ccccc1 [2-Phenoxyethanol] | > 45.8 | > 45.8 |
| O=C1CC[C@@H](C(=O)O)N1 [2-Pyrrolidone-5-carboxylic acid] | > 45.8 | > 45.8 |
| O=C(O)c1ccccc1S [2-Thiosalicylic acid] | > 45.8 | > 45.8 |

Next, values leading:

| IC50 cell viability (ICRF193 0 nM) [µM] | IC50 cell viability (ICRF193 200 nM) [µM] | SMILES |
| --- | --- | --- |
| > 45.8 | > 45.8 | CCOc1cc([C@@H](CS(C)(=O)=O)N2C(=O)c3cccc(NC(C)=O)c3C2=O)ccc1OC |
| > 45.8 | > 45.8 | CCOc1ccc(Cc2cc([C@]34OC[C@](CO)(O3)[C@@H](O)[C@H](O)[C@H]4O)ccc2Cl)cc1 |
| > 45.8 | > 45.8 | CSCCNc1nc(SCCC(F)(F)F)nc2c1ncn2[C@@H]1O[C@H](COP(=O)(O)OP(=O)(O)C(Cl)(Cl)P(=O)(O)O)[C@@H](O)[C@H]1O |
| > 45.8 | > 45.8 | C[C@H]1C[C@@H]2[C@H]([C@@H](O)C[C@@]3(C)[C@H]2CC[C@]3(O)C(=O)COC(=O)CCC(=O)O)[C@@]2(C)C=CC(=O)C=C12 |
| > 45.8 | > 45.8 | OC[C@H]1O[C@@H](c2ccc(Cl)c(Cc3ccc(O[C@H]4CCOC4)cc3)c2)[C@H](O)[C@@H](O)[C@@H]1O |
| > 45.8 | > 45.8 | OCc1cc([C@@H](O)CNCCCCCCOCCOCc2c(Cl)cccc2Cl)ccc1O |
| > 45.8 | > 45.8 | CC#CCC(C)[C@H](O)/C=C/[C@@H]1[C@H]2c3cccc(CCCC(=O)O)c3O[C@H]2C[C@H]1O (mixture of isomers) [Beraprost sodium] |
| > 45.8 | > 45.8 | OC[C@H]1O[C@@H](O[C@@H]2[C@@H](CO)OC(O)(CO)[C@H]2O)[C@H](O)[C@@H](O)[C@H]1O (mixture of isomers) [Lactulose] |
| > 45.8 | > 45.8 | C=C(C)CNc1ccc(C(C)C(=O)O)cc1 (racemic) [rac Alminoprofen] |
| > 45.8 | > 45.8 | CC(C1=C(CCN(C)C)Cc2ccccc21)c1ccccn1 (stereo in doubt) [(S)-(+)-Dimethindene maleate] |
| > 45.8 | > 45.8 | O=C(O)c1ccc(OCCCOc2ccc(C(=O)O)cc2)cc1 [1,3-Bis(4-carboxyphenoxy)propane] |
| > 45.8 | > 45.8 | O=C(O)Cc1cccc2ccccc12 [1-Naphthaleneacetic acid] |
| > 45.8 | > 45.8 | Nc1ccn([C@H]2CC[C@@H](CO)O2)c(=O)n1 [2',3'-Dideoxycytidine] |
| > 45.8 | > 45.8 | O=c1[nH]cnc2c1ncn2[C@H]1CC[C@@H](CO)O1 [2',3'-Dideoxyinosine] |
| > 45.8 | > 45.8 | COc1ccc(C(=O)c2ccccc2O)c(O)c1 [2,2'-Dihydroxy-4-methoxybenzophenone] |
| > 45.8 | > 45.8 | OCc1ccc(Cl)cc1Cl [2,4-Dichlorobenzyl alcohol] |
| > 45.8 | > 45.8 | COc1ccc(C(=O)c2ccccc2)c(O)c1 [2-Hydroxy-4-methoxybenzophenone] |
| > 45.8 | > 45.8 | O=C(Nc1ccc(O)cc1)c1ccccc1O [2-Hydroxy-N-(4-hydroxyphenyl)-benzamide] |
| > 45.8 | > 45.8 | OCCc1ccccc1 [2-Phenylethanol] |
| > 45.8 | > 45.8 | Cc1cc(Nc2ccccc2C(=O)O)ccc1Cl [2-[(4-Chloro-3-methylphenyl)amino]benzoic acid] |
